Assay results published in article PMC9105517, “Biological Activities of Lichen-Derived Monoaromatic Compounds” (Molecules, 2022).
Values after ≈ are worked out from the molar mass of the structure shown. Where two headings read alike, the source gives them in different places.

Experiments:
[1] = biological target: T1, Saccharomyces cerevisiae α-glucosidase (E.C 3.2.1.20) (Saccharomyces cerevisiae, UniProt P53341); experiment: biochemical
T1 construct: purchased Sigma Aldrich Co (Saint Louis, MO, USA)
Method: The alpha-glucosidase (0.2 U/mL) and substrate (5.0 mM pNPG) were dissolved in 100 mM pH 6.9 sodium phosphate buffer. The inhibitor (50 µL) was preincubated with alpha-glucosidase at 37 °C for 20 min, and the substrate (40 µL) was subsequently added to the reaction mixture. The enzymatic reaction was conducted at 37 °C for 20 min and ended by adding 0.2 M Na2CO3 (130 μL). Enzymatic activity was quantitatively measured at an absorbance of 405 nm (CLARIOstar plus, BMG LABTECH, Ortenberg, Germany). All samples were analyzed in triplicate at five different concentrations around the IC50 values, and the mean values were retained. The following equation was used to calculate the inhibition percentage (%): Inhibition (%) = [1 − (Asample/Acontrol)] × 100.

Enterococcus faecium = experiment: Agar well diffusion antimicrobial assay; assay type: cell-based; conditions: 8 mm wells
Method: (§1) The agar well diffusion method was utilized to investigate the antibacterial activity of the isolated compounds on antibiotic-resistant, pathogenic bacteria E. faecium, S. aureus, and A. baumannii. Three bacterial pathogens were cultured in nutrient broth at 37 °C for 18 h. The cultures were diluted with sterile 0.9% NaCl to obtain bacterial solutions of 1.5 × 10^8 CFU/mL. This solution with a volume of 100 μL was spread on a Mueller-Hinton agar plate. Holes with a diameter of 8 mm were punched aseptically to create wells on the surface of the Mueller–Hinton agar. The compounds were dissolved in DMSO. The amount of 50 µg of each compound solution was inserted into the wells. The plates were incubated at 37 °C for 16–18 h and the antibacterial activity of each compound was recorded by measuring the diameters of the inhibition zones surrounding the wells. The determination of the minimum inhibitory concentration of 9a against Staphylococcus aureus was performed by the agar dilution method. Compound 9a was dissolved in DMSO to the final concentration of 1 mg/mL and then diluted with Mueller–Hinton agar (MHA) to the concentration range of 0, 1, 2, 4, 8, 16, 32, 64 μg/mL as the final concentrations in MHA plates. S. aureus was cultured in nutrient broth at 37 °C overnight with shaking. […] 1 μL of the diluted bacterial solution (10^4 CFU) was placed on the surface of the MHA plates and the plates were incubated at 37 °C for 16–18 h. The MIC value was recorded as the lowest concentration of 9a that inhibited the growth of S. aureus. Kanamycin was chosen as the positive control in this experiment, while DMSO was regarded as a control.

alpha-glucosidase = system: alpha-glucosidase; parameters: method as in doi:10.1007/s10600-021-03404-z, PMID 33656403, PMID 29968482, PMID 18981604; conditions: cited from earlier work
Staphylococcus aureus [2] = experiment: Minimum inhibitory concentration by agar dilution method; assay type: cell-based; conditions: 37 °C, 16–18 h
Method: The agar well diffusion method was utilized to investigate the antibacterial activity of the isolated compounds on antibiotic-resistant, pathogenic bacteria E. faecium, S. aureus, and A. baumannii. Three bacterial pathogens were cultured in nutrient broth at 37 °C for 18 h. The cultures were diluted with sterile 0.9% NaCl to obtain bacterial solutions of 1.5 × 10^8 CFU/mL. This solution with a volume of 100 μL was spread on a Mueller-Hinton agar plate. Holes with a diameter of 8 mm were punched aseptically to create wells on the surface of the Mueller–Hinton agar. The compounds were dissolved in DMSO. The amount of 50 µg of each compound solution was inserted into the wells. The plates were incubated at 37 °C for 16–18 h and the antibacterial activity of each compound was recorded by measuring the diameters of the inhibition zones surrounding the wells. The determination of the minimum inhibitory concentration of 9a against Staphylococcus aureus was performed by the agar dilution method. Compound 9a was dissolved in DMSO to the final concentration of 1 mg/mL and then diluted with Mueller–Hinton agar (MHA) to the concentration range of 0, 1, 2, 4, 8, 16, 32, 64 μg/mL as the final concentrations in MHA plates. S. aureus was cultured in nutrient broth at 37 °C overnight with shaking. […] The MIC value was recorded as the lowest concentration of 9a that inhibited the growth of S. aureus. […]

Staphylococcus aureus [3] = experiment: Agar well diffusion antimicrobial assay; assay type: cell-based; conditions: 8 mm wells
Method: as §1

various microorganisms = system: various microorganisms; parameters: method as in doi:10.1007/s11101-010-9201-1, PMID 12487331; conditions: cited from earlier work
[4] = system: S. aureus, Bacillus subtilis, Pseudomonas aeruginosa, Candida albicans, Escherichia coli, and Aspergillus niger; parameters: method as in PMID 3834834; conditions: various microorganisms; cited from earlier work
Acinetobacter baumannii = experiment: Agar well diffusion antimicrobial assay; assay type: cell-based; conditions: 8 mm wells
Method: as §1

[5] = in vitro, 37 °C, pH 6.9, triplicate, read-out: IC50, alpha-glucosidase inhibitory activity (converted)

T1 sequence (P53341 whole entry): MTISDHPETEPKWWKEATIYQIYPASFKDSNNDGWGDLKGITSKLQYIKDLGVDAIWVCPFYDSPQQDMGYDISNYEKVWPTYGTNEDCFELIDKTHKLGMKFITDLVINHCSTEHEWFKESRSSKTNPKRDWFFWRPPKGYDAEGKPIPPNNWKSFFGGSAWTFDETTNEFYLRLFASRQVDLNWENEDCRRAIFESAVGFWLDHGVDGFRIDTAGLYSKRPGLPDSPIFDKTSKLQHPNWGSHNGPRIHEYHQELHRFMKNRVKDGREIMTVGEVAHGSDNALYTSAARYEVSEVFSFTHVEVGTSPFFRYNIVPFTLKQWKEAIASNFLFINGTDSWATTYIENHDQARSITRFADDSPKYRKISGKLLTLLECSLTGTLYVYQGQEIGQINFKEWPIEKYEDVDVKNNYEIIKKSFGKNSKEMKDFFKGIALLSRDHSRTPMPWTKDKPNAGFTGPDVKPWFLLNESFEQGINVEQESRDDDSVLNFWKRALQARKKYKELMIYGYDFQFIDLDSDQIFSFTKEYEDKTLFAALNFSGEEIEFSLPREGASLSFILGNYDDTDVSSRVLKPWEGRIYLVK

Cc1c(O)cc(C(=O)O)cc1O [Compound 3, 3,5-dihydroxy-4-methylbenzoic acid]
IC50 [1]: 143 µM

Cc1cc(O)c(Br)c(O)c1C(=O)OCC(O)C(O)CO [Compound 10a, 3-bromo-D-montagnetol]
zone of inhibition at 50 µg/mL (Enterococcus faecium): 13 mm | IC50 [1]: 381 µM

COC(=O)c1c(C)cc(O)c(C=O)c1O [Compound 7, methyl hematommate]
alpha-glucosidase inhibition (in words) (alpha-glucosidase): potent activity | IC50 [1, 5]: 294 µM

Cc1c(Br)c(O)c(Br)c(O)c1C(=O)OCC(O)C(O)CO [Compound 10b, 3,5-dibromo-D-montagnetol]
IC50 [1]: 301 µM

COC(=O)c1cc(O)cc(O)c1 [Compound 2, 3,5-dihydroxybenzoate methyl]
IC50 [1, 5]: 939 µM

cristiferide A
alpha-glucosidase inhibition (in words) (alpha-glucosidase): potent activity

NC[C@H]1O[C@H](O[C@H]2[C@H](O)[C@@H](O[C@H]3O[C@H](CO)[C@@H](O)[C@H](N)[C@H]3O)[C@H](N)C[C@@H]2N)[C@H](O)[C@@H](O)[C@@H]1O [kanamycin, reference compound]
MIC (Staphylococcus aureus [2]): 4 µg/mL (≈ 8.26 µM)

COC(=O)c1c(C)c(Br)c(O)c(Br)c1O [Compound 9a, methyl 3,5-dibromo-orsellinate]
MIC (Staphylococcus aureus [2]; read-out: MIC): 4 µg/mL (≈ 11.8 µM) | zone of inhibition at 50 µg/mL (Staphylococcus aureus [3]): 29 mm | IC50 [1]: 459 µM

COC(=O)c1c(C)cc(O)c(C)c1O [Compound 8, methyl β-orsellinate]
MIC (various microorganisms): 30 to 500 µg/mL | MIC [4]: 80 to 160 µg/mL | alpha-glucosidase inhibition (in words) (alpha-glucosidase): weak inhibitors | zone of inhibition at 50 µg/mL (Staphylococcus aureus [3]): 18 mm | zone of inhibition at 50 µg/mL (Enterococcus faecium): 13 mm | zone of inhibition at 50 µg/mL (Acinetobacter baumannii): 16 mm | IC50 [1]: > 1530 µM

Cc1cc(O)cc(O)c1 [orcinol]
MIC (various microorganisms): 30 to 500 µg/mL

Cc1cc(O)cc(O)c1C(=O)OCC(O)C(O)CO [Compound 10, D-montagnetol]
IC50 [1]: > 1100 µM

COc1c(O)cc(C(=O)O)cc1O [Compound 4, 3,5-dihydroxy-4-methoxylbenzoic acid]
IC50 [1, 5]: 929 µM

Cc1cc(O)c(O)c(O)c1 [Compound 5, 3-hydroxyorcinol]
IC50 [1, 5]: 694 µM

O=C(O)c1cc(O)cc(O)c1 [Compound 1, 3,5-dihydroxybenzoic acid]
IC50 [1, 5]: 729 µM

CN[C@@H]1[C@@H](O[C@H]2O[C@H](CO)[C@@H](N)[C@H](O)[C@H]2O)OC2C[C@@H](N)[C@@H](O[C@H]3[C@H](O)[C@@H](O)[C@H](N)C[C@@H]3N)OC2[C@@H]1O (some centres unmarked) [Apramycin, reference compound]
zone of inhibition at 50 µg/mL (Staphylococcus aureus [3]): 21 mm | zone of inhibition at 50 µg/mL (Enterococcus faecium): 21 mm | zone of inhibition at 50 µg/mL (Acinetobacter baumannii): 20 mm

CCOC(=O)c1c(C)cc(O)cc1O [ethyl orsellinate]
MIC (various microorganisms): 30 to 500 µg/mL

COC(=O)c1c(C)cc(O)cc1O [Compound 9, methyl orsellinate]
MIC (various microorganisms): 30 to 500 µg/mL | alpha-glucosidase inhibition (in words) (alpha-glucosidase): weak inhibitors | zone of inhibition at 50 µg/mL (Staphylococcus aureus [3]): 13 mm | IC50 [1]: > 1650 µM

Cc1cc(O)c(C=O)c(O)c1 [Compound 6, atranol]
IC50 [1]: > 1970 µM

COC(=O)c1c(C)c(Br)c(O)c(C)c1O [Compound 8a, methyl 5-bromo-β-orsellinate]
zone of inhibition at 50 µg/mL (Staphylococcus aureus [3]): 12 mm | IC50 [1]: 606 µM
